Reference: ChEMBL document CHEMBL3639272, “2-morpholino-pyrido[3,2-D]pyrimidines” (2013)

Target: Phosphatidylinositol 4,5-bisphosphate 3-kinase catalytic subunit alpha isoform (Homo sapiens, UniProt P42336)
Assay: Biological Assays: The efficacy of compounds of the invention in inhibiting the PI3K induced-lipid phosphorylation may be tested in the following binding assay. The assay combines the scintillation proximity assay technology (SPA, Amersham) with the capacity of neomycin (a polycationic antibiotic) to bind phospholipids with high affinity and specificity. The Scintillation Proximity Assay is based on the properties of weakly emitting isotopes (such as 3H, 125I, 33P). Coating SPA beads with neomycin allows the detection of phosphorylated lipid substrates after incubation with recombinant PI3K and radioactive ATP in the same well, by capturing the radioactive phospholipids to the SPA beads through their specific binding to neomycin.

Sequence of Phosphatidylinositol 4,5-bisphosphate 3-kinase catalytic subunit alpha isoform (P42336 whole entry, canonical isoform): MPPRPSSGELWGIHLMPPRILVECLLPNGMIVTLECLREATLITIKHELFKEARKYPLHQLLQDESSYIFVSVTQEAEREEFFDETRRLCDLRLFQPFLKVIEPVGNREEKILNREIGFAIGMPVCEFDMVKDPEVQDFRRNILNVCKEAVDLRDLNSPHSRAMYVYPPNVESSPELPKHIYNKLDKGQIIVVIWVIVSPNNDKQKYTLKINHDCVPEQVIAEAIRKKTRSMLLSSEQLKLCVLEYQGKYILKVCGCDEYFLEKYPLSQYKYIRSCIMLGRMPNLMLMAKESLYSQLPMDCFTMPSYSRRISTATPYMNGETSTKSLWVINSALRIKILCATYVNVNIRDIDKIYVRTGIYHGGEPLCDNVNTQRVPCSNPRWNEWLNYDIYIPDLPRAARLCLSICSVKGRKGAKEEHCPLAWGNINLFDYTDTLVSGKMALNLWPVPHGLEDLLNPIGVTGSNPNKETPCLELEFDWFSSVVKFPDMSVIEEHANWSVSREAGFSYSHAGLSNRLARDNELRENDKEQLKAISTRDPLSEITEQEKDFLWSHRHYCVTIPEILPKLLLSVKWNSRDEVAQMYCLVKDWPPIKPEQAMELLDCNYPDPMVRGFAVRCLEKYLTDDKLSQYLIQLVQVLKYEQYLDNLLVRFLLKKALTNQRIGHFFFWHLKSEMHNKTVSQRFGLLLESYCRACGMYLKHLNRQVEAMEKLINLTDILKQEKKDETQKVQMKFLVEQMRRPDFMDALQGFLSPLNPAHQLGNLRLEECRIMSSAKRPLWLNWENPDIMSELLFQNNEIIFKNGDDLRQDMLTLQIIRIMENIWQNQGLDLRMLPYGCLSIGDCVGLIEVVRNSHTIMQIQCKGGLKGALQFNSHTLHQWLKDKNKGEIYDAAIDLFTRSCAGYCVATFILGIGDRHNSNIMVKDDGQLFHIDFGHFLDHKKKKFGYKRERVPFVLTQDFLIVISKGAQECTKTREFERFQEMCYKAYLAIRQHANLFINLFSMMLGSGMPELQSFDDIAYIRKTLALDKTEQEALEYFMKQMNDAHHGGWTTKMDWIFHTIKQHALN

IC50: 0.057 µM
SMILES: O=C(O)c1cc(-c2cccc3ccccc23)c2nc(N3CCOCC3)nc(-c3cccc(O)c3)c2n1
